In the assay the target is recombinant human TrkA (Homo sapiens (Human), UniProt P04629). Nature of the assay: TrkA Kinase Binding Assay (LanthaScreen Eu). The note with it: averaged IC50; read-out: TrkA Enzyme IC50. On the procedure: TrkA binding activity was determined in a TrkA LanthaScreen™ Eu Kinase Binding Assay. 5 nM His-tagged recombinant human TrkA (6HIS tagged cytoplasmic domain from Invitrogen, Catalog No. PV3144) was incubated with 4 nM Alexa-Fluor® Tracer 236 (Invitrogen Cat. No. PV5592), 2 nM biotinylated anti-His (Invitrogen Cat. No. PV6090), and 2 nM europium-labeled Streptavidin (Invitrogen Cat. No. PV5899), in buffer (25 mM MOPS, pH 7.5, 5 mM MgCl2, 0.005% Triton X-100). Three fold serial dilutions of compounds of the invention in DMSO were added to a final percentage of 2% DMSO. After 60-minute incubation at 22° C., the reaction was measured using the EnVision mutlimode plate reader (PerkinElmer) via TR-FRET dual wavelength detection at […]. The percent of control was calculated using a ratiometric emission factor. The IC50 values were determined by fitting a four parameter model to the percent of control data.
Table A provides averaged IC50 values for compounds of the invention when tested in the assay of Example A, where A represents an averaged IC50 value <100 nM; B represents an averaged IC50 value from 100 to 1,000 nM, and C represents an averaged IC50 value between >1,000 nM and 3,000 nM.

Structures are written as SMILES. Some results are limits rather than exact numbers.

recombinant human TrkA, sequence (P04629 440-796): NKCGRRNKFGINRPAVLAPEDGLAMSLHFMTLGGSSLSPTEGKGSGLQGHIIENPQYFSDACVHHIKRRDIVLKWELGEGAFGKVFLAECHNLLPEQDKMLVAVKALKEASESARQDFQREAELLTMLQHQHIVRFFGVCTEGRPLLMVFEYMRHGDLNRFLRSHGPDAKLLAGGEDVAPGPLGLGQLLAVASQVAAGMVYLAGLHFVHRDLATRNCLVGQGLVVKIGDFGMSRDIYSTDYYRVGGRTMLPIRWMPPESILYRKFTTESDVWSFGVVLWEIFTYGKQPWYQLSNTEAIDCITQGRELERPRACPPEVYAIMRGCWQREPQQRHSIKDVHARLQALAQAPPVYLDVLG

On to `Cc1ncc(-c2nn(-c3ccccc3)c(NC(=O)N[C@@H]3c4ccccc4C4(CC4)[C@H]3O)c2C)cn1` (relative stereo) [Example 56, 1-(trans-2′-hydroxy-2′,3′-dihydrospiro[cyclopropane-1,1′-inden]-3′-yl)-3-(4-methyl-3-(2-methylpyrimidin-5-yl)-1-phenyl-1H-pyrazol-5-yl)urea], for which the IC50 is below 100 nM. On to `Cc1c(-c2cnn(C)c2)nn(-c2ccccc2)c1NC(=O)N[C@@H]1c2cc(F)ccc2C2(CC2)[C@H]1O` (relative stereo) [Example 63, 1-(1′,4-dimethyl-1-phenyl-1H1′H-[3,4′-bipyrazol]-5-yl)-3-(trans-5′-fluoro-2′-hydroxy-2′,3′-dihydrospiro[cyclopropane-1,1′-inden]-3′-yl)urea], for which the IC50 was below 100 nM. Regarding `COc1nn(-c2ccccc2)c(NC(=O)N[C@@H]2c3cc(F)c(F)cc3C3(CC3)[C@H]2O)c1C` (relative stereo) [Example 62, 1-(trans-5′,6′-difluoro-2′-hydroxy-2′,3′-dihydrospiro[cyclo-propane-1,1′-inden]-3′-yl)-3-(3-methoxy-4-methyl-1-phenyl-1H-pyrazol-5-yl)urea], the IC50 is below 100 nM.

On to `Cc1c(-c2cnn(C)c2)nn(-c2ccccc2)c1NC(=O)N[C@@H]1c2cc(F)c(F)cc2C2(CC2)[C@H]1O` (relative stereo) [Example 58, 1-(trans-5′,6′-difluoro-2′-hydroxy-2′,3′-dihydrospiro[cyclopropane-1,1′-inden]-3′-yl)-3-(1′,4-dimethyl-1-phenyl-1H, 1′H-[3,4′-bipyrazol]-5-yl)urea], for which the IC50 is below 100 nM.

With `Cc1c(OCC2CCN(C)CC2)nn(-c2ccccc2)c1NC(=O)N[C@@H]1c2ccccc2CC[C@H]1O` (relative stereo) [Example 123, 1-(trans-2-hydroxy-1,2,3,4-tetrahydro-naphthalen-1-yl)-3-(4-methyl-3-((1-methylpiperidin-4-yl)methoxy)-1-phenyl-1H-pyrazol-5-yl)urea], the IC50 is below 100 nM. In the case of `COc1ncc(-c2nn(-c3ccccc3)c(NC(=O)N[C@@H]3c4ccccc4C4(CC4)[C@H]3O)c2C)cn1` (relative stereo) [Example 57, 1-(trans-2′-hydroxy-2′,3′-dihydrospiro[cyclopropane-1,1′-inden]-3′-yl)-3-(3-(2-methoxypyrimidin-5-yl)-4-methyl-1-phenyl-1H-pyrazol-5-yl)urea], the IC50 is below 100 nM. For `Cc1nn(-c2ccccc2)c(NC(=O)N[C@@H]2c3cc(C(N)=O)ccc3C(C)(C)C[C@H]2O)c1C` (relative stereo) [Example 98, trans-8-(3-(3,4-dimethyl-1-phenyl-1H-pyrazol-5-yl)ureido)-7-hydroxy-5,5-dimethyl-5,6,7,8-tetrahydronaphthalene-2-carboxamide], the IC50 is 1000 to 3000 nM. On to `Cc1c(NC(=O)N[C@@H]2c3ccccc3C(C)(C)C[C@H]2O)n(-c2ccccc2)[nH]c1=O` (relative stereo) [Example 95, 1-(trans-2-hydroxy-4,4-dimethyl-1,2,3,4-tetrahydronaphthalen-1-yl)-3-(4-methyl-5-oxo-2-phenyl-2,5-dihydro-1H-pyrazol-3-yl)urea], for which the IC50 was below 100 nM.

For `COC(=O)c1ccc2c(c1)[C@@H](NC(=O)Nc1c(C)c(C)nn1-c1ccccc1)[C@H](O)CC2(C)C` (relative stereo) [Example 99, trans-methyl 8-(3-(3,4-dimethyl-1-phenyl-1H-pyrazol-5-yl)ureido)-7-hydroxy-5,5-dimethyl-5,6,7,8-tetrahydronaphthalene-2-carboxylate], the IC50 was below 100 nM. Take `Cc1c(-c2cnn(C)c2)nn(-c2ccccc2)c1NC(=O)N[C@@H]1c2ccc(F)cc2C2(CC2)[C@H]1O` (relative stereo) [Example 64, 1-(1′,4-dimethyl-1-phenyl-1H,1′H-[3,4′-bipyrazol]-5-yl)-3-(trans-6′-fluoro-2′-hydroxy-2′,3′-dihydrospiro[cyclopropane-1,1′-inden]-3′-yl)urea]: the IC50 was below 100 nM.

The values above are taken from patent US10889589B2, “Bicyclic urea, thiourea, guanidine and cyanoguanidine compounds useful for the treatment of pain” (Array BioPharma Inc., priority 2012, dated 2021).
